Test results as given in ChEMBL document CHEMBL2169869, “Assay and inhibition of diacylglycerol lipase activity” (Bioorg Med Chem Lett, 2012).
The source made the active and inactive calls. The calls are words filed in the database; no cut-off is given here.

Assays:
[1] = target: Cannabinoid receptor 2 (Homo sapiens, UniProt P34972); assay: Displacement of [3H]CP55940 from human CB2 receptor expressed in HEK293 cells; assay type: cell-based
[2] = target: Cannabinoid receptor 2 (Mus musculus, UniProt P47936); assay: Displacement of [3H]CP55940 from CB2 receptor in mouse spleen membrane; assay type: cell membranes
Cannabinoid receptor 2 (Mus musculus, UniProt P47936), sequence (P47936 whole entry): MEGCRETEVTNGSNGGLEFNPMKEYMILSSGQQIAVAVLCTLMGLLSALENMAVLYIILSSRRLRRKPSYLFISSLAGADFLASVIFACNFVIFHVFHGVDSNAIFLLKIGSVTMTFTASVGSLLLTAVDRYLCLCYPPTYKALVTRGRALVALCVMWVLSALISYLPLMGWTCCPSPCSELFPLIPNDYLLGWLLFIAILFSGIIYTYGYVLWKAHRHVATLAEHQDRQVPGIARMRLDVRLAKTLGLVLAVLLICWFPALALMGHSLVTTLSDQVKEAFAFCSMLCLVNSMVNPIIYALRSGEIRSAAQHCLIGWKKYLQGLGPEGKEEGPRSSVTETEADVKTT

[3] = target: T1, Monoglyceride lipase (Homo sapiens) (UniProt Q99685); assay: Inhibition of human N-terminal histidine tagged full length MAGL expressed in Escherichia coli at 10 uM by coumarin ester substrate fluorescence assay
T1 sequence (whole entry): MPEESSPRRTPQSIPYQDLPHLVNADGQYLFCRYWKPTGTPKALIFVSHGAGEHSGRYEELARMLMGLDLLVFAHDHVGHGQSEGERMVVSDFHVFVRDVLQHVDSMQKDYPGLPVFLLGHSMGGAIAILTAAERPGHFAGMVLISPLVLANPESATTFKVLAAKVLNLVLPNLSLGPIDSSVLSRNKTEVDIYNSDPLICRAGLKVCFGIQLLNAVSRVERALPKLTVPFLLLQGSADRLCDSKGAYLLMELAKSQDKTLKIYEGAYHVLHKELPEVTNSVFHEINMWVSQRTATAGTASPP

[4] = target: T2, Fatty-acid amide hydrolase 1 (Rattus norvegicus) (UniProt P97612); assay: Inhibition of rat histidine tagged FAAH expressed in Escherichia coli at 10 uM by coumarin ester substrate fluorescence assay
T2 sequence (whole entry): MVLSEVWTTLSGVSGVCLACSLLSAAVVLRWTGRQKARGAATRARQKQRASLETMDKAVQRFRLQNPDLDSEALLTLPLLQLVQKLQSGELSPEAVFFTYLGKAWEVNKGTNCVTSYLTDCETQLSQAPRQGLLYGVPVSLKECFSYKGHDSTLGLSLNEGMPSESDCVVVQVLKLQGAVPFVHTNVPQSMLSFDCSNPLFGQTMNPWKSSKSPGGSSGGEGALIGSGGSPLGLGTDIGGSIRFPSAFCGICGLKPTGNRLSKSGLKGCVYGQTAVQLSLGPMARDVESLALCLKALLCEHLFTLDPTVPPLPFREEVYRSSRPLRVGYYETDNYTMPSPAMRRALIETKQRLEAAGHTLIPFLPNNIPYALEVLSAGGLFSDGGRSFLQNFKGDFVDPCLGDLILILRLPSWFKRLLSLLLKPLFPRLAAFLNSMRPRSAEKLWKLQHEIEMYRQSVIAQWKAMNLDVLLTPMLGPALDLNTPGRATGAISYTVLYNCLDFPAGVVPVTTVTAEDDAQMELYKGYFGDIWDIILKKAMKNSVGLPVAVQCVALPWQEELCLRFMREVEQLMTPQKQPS

[5] = target: Cannabinoid receptor 1 (Rattus norvegicus, UniProt P20272); assay type: cell membranes, Brain
Cannabinoid receptor 1, sequence (P20272 whole entry): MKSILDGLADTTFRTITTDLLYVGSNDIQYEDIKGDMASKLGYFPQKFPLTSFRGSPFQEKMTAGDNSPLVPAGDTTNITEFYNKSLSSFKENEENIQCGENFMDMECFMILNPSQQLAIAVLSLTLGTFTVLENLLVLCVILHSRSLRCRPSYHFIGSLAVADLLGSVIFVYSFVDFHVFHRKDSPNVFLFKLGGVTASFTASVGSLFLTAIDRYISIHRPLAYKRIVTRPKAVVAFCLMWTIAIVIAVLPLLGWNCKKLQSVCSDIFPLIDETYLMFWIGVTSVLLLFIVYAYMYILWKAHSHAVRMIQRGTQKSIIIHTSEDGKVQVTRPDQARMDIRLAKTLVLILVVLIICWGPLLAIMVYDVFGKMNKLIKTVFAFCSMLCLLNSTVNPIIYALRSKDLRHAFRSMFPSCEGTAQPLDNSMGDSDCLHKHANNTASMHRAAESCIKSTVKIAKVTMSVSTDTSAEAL
Description: Displacement of [3H]CP55940 from CB1 receptor in rat brain synaptosome membrane

Cannabinoid receptor 2 (Homo sapiens, UniProt P34972), sequence (P34972 whole entry): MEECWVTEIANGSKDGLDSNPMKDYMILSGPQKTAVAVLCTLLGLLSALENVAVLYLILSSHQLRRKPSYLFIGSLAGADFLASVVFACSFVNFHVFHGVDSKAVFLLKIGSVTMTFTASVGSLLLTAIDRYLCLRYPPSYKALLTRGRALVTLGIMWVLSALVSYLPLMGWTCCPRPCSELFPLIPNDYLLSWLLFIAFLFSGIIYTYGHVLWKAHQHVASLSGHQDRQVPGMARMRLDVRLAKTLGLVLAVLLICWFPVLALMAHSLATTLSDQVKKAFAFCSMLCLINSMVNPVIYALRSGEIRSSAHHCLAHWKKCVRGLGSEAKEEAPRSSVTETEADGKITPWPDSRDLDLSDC

SMILES | Ki [1] | Ki [2] | inhibition [3] | inhibition [4] | Ki [5]
COCC(O)CNC(=O)ON=C1CCCCC1 (racemic) | > 1000 nM | > 1000 nM | inactive | inactive | 
CCCCC/C=C\C/C=C\C/C=C\C/C=C\CCCC(=O)OC(COC)COC(=O)NCCCCCCCC (racemic) | > 1000 nM | > 1000 nM | inactive | inactive | > 1000 nM
CCCCCCCC/C=C\CCCCCCCC(=O)OC(CNC(=O)CCCCCCC)COC (racemic) | > 1000 nM | > 1000 nM | inactive | inactive | > 1000 nM
CCCCCCCCNC(=O)OCC(COC)OC(=O)CCCCCCC (racemic) | > 1000 nM | > 1000 nM | inactive | inactive | > 1000 nM
COCC(COC(=O)CCCc1ccc(-c2ccccc2)cc1)OC(=O)CCCc1ccc(-c2ccccc2)cc1 (racemic) | > 1000 nM | > 1000 nM | inactive | inactive | > 1000 nM
CCCCCCCCCCCCCCCCS(=O)(=O)F |  |  |  | 100% | 
CCCCCCCC/C=C\CCCCCCCC(=O)OC(CNC(=O)ON=C1CCCCC1)COC (racemic) | > 1000 nM | > 1000 nM | inactive | inactive | > 1000 nM
CCCCCCCC(=O)OCC(COC)OC(=O)CCCCCCC (racemic) | > 1000 nM | > 1000 nM | inactive | inactive | > 1000 nM
CCCCCCCC/C=C\CCCCCCCC(=O)OC(CNC(=O)OCCCCCCCC)COC (racemic) | > 1000 nM | > 1000 nM | inactive | inactive | > 1000 nM
CCCCCCCC(=O)NCC(COC)OC(=O)CCCCCCC (racemic) | > 1000 nM | > 1000 nM | inactive | inactive | > 1000 nM
CCCCCCCC/C=C\CCCCCCCC(=O)OC(COC)COC(=O)NCCCCCCCC (racemic) | > 1000 nM | > 1000 nM | inactive | inactive | > 1000 nM
CCCCCCCC(=O)OC(CNC(=O)ON=C1CCCCC1)COC (racemic) | > 1000 nM | > 1000 nM | inactive | inactive | > 1000 nM
COCC(CNC(=O)ON=C1CCCCC1)OC(=O)CCCc1ccc(-c2ccccc2)cc1 (racemic) | > 1000 nM | > 1000 nM | inactive | inactive | > 1000 nM
CCCCCCCCNC(=O)OCC(OC)O[Si](c1ccccc1)(c1ccccc1)C(C)(C)C (racemic) | > 1000 nM | > 1000 nM | inactive | inactive | > 1000 nM
CCCCCCCCOC(=O)NCC(COC)OC(=O)CCCCCCC (racemic) | > 1000 nM | > 1000 nM | inactive | inactive | > 1000 nM
COCC(CNC(=O)CCCc1ccc(-c2ccccc2)cc1)OC(=O)CCCc1ccc(-c2ccccc2)cc1 (racemic) | > 1000 nM | > 1000 nM | inactive | inactive | > 1000 nM
CCCCCCCCNC(=O)OCC(COC)OC(=O)NCCCCCCCC (racemic) | > 1000 nM | > 1000 nM | inactive | inactive | > 1000 nM
